From US7105548B2, “Heteroaryl substituted triazole modulators of metabotropic glutamate receptor-5” (Merck & Co., Inc., priority 2001, dated 2006)
Structures can show the parent of a compound that is named as a salt.

| melting point [°C] | SMILES |
| --- | --- |
| 221 to 223 | Clc1cccc(-n2cnc(-c3ccccn3)n2)c1 (as salt: hydrochloride) [Example 1, 2-[1-(3-chlorophenyl)-1H-1,2,4-triazol-3-yl]pyridine] |
| 185 to 188 | N#Cc1cccc(-c2ncn(-c3ccccn3)n2)c1 (as salt: hydrochloride) [Example 3, 3-(1-pyridin-2-yl-1H-1,2,4-triazol-3-yl)benzonitrile] |
| 125 to 128 | Clc1cccc(-c2ncn(-c3ccccn3)n2)c1 (as salt: hydrochloride) [Example 4, 2-[3-(3-chlorophenyl)-1H-1,2,4-triazol-1-yl]pyridine] |
| 194 to 195 | N#Cc1cccc(-n2cnc(-c3ccccn3)n2)c1 [Example 2, 3-(3-pyridin-2-yl-1H-1,2,4-triazol-1-yl)benzonitrile] |
